These results are taken from ChEMBL document CHEMBL4483862, “Open-source discovery of chemical leads for next-generation chemoprotective antimalarials” (2018).

One may read the IC50 as the concentration needed to halve the response being measured. As usually defined, the IC90 is the point of the concentration-response curve where the effect stands at 90%.

Bounds are passed on as bounds.

This assay relates to Plasmodium berghei. As to the kind of experiment: Luciferase/luciferin-expressing antifolate-resistant parasites were used to infect a culture of HepG2 cells that were pre-incubated with compounds. Infected hepatocytes emit light due to the luciferase reaction. Assay results are presented as the percent inhibition of light emission compared to control. […]. The format is functional. The following applies: sporozoite; for IC90: read-out: LUCIFERASE INFECTION ASSAY - IC90.

[1] abbreviates: read-out: LUCIFERASE INFECTION ASSAY - IC50.

Regarding `CCN(CC)Cc1ccc(OCC(=O)Nc2ccc(Cl)cc2)c2ncccc12`, the IC90 is > 10 µM. Moreover, under “FFLUC_HILL_SLOPE 1.82, FFLUC_R_SQUARED 0.795, HEPG2TOX_HILL_SLOPE 1.24, HEPG2TOX_R_SQUARED 0.929, read-out: LUCIFERASE INFECTION ASSAY - IC50”, the IC50 was > 10 µM.

As for `CC(Nc1ccnc2cc(Cl)ccc12)c1ccccc1Cl` (stereo not drawn), the IC90 turned out to be 3.6 µM. Besides, the IC50 (PBLUC_HILL_SLOPE 22.7, PBLUC_R_SQUARED 0.0753, read-out: LUCIFERASE INFECTION ASSAY - IC50) came to 3.27 µM.

As for `O=C(/C=C/c1ccc([N+](=O)[O-])cc1)NCC(=O)N1CCN(S(=O)(=O)c2ccc(Cl)cc2)CC1`, the IC90 was determined as 0.04 µM. Also, the IC50 (HEPG2TOX_HILL_SLOPE 0.532, HEPG2TOX_R_SQUARED 0.824, PBLUC_HILL_SLOPE 10.3, PBLUC_R_SQUARED 0.421, read-out: LUCIFERASE INFECTION ASSAY - IC50) was 0.0324 µM.

Regarding `O=C(NCCOc1ccc2ccccc2c1)c1ccccc1O`, the IC90 is > 10 µM. Further, the IC50 (PBLUC_HILL_SLOPE 7.72, PBLUC_R_SQUARED 0.601, read-out: LUCIFERASE INFECTION ASSAY - IC50) was determined as 9.34 µM.

Regarding `Cn1nnnc1Sc1ncnc2sc3c(c12)CCCC3`, the IC90 is > 10 µM. Besides, the IC50 under setting [1] is > 10 µM.

In the case of `OC(COc1ccc(Cl)c(Cl)c1)CN1CCC(Nc2nccc(C(F)(F)F)n2)CC1` (stereo not drawn), the IC90 was > 7.09 µM. The IC50 (PBLUC_HILL_SLOPE 16.2, PBLUC_R_SQUARED 0.0623, read-out: LUCIFERASE INFECTION ASSAY - IC50) was 6.96 µM.

Turning to `CN(c1ccccc1)c1ccc(CN2CCC3(CC2)C(=O)N(CCc2ccccc2)C(=O)N3C)cc1`, the IC90 was determined as 3.1 µM. Moreover, under “HEPG2TOX_HILL_SLOPE 3.73, HEPG2TOX_R_SQUARED 0.979, PBLUC_HILL_SLOPE 9.4, PBLUC_R_SQUARED 0.597, read-out: LUCIFERASE INFECTION ASSAY - IC50”, the IC50 came to 2.46 µM.

With `CN1/C(=C\C(=O)COC(=O)/C=C/c2cn(-c3ccccc3)nc2-c2ccc(F)cc2)C(C)(C)c2ccccc21`, the IC90 was > 10 µM. In addition, the IC50 (FFLUC_HILL_SLOPE 1.67, FFLUC_R_SQUARED 0.511, PBLUC_HILL_SLOPE 9.36, PBLUC_R_SQUARED 0.0694, read-out: LUCIFERASE INFECTION ASSAY - IC50) was 9.4 µM.

Consider `N#Cc1ccc(NCCNc2nc3ccccc3s2)nc1`, for which the IC90 came to 4.32 µM. Further, the IC50 (HEPG2TOX_HILL_SLOPE 2.81, HEPG2TOX_R_SQUARED 0.729, PBLUC_HILL_SLOPE 4.52, PBLUC_R_SQUARED 0.618, read-out: LUCIFERASE INFECTION ASSAY - IC50) was 2.66 µM.

For `CNc1ccc2ncc(-c3ccc(OC)nc3)n2n1`, the IC90 amounted to 12.8 µM. The IC50 (HEPG2TOX_HILL_SLOPE 1.61, HEPG2TOX_R_SQUARED 0.963, PBLUC_HILL_SLOPE 2.26, PBLUC_R_SQUARED 0.378, read-out: LUCIFERASE INFECTION ASSAY - IC50) is 4.85 µM.

Turning to `CC(C)(C)c1ccc(Oc2ccc(N)cn2)cc1` [LIMANTRAFIN], the IC90 was > 13.6 µM. Moreover, for the setting “PBLUC_HILL_SLOPE 0.71, PBLUC_R_SQUARED 0.895, read-out: LUCIFERASE INFECTION ASSAY - IC50”, the IC50 was determined as 1.19 µM.

As for `Cc1nc(-c2ccc(C(C)Nc3cnn(-c4ccccc4)c(=O)c3Cl)cc2)cs1` (stereo not drawn), the IC90 worked out at 5.07 µM. Also, the IC50 (HEPG2TOX_HILL_SLOPE 2.7, HEPG2TOX_R_SQUARED 0.839, PBLUC_HILL_SLOPE 8.17, PBLUC_R_SQUARED 0.802, read-out: LUCIFERASE INFECTION ASSAY - IC50) was 3.88 µM.

Turning to `CCCNC(=O)c1c(NC(=O)c2ccc(C)cc2)nc2ccccn12`, the IC90 was found to be 9.6 µM. Further, the IC50 (PBLUC_HILL_SLOPE 5.82, PBLUC_R_SQUARED 0.26, read-out: LUCIFERASE INFECTION ASSAY - IC50) was 6.58 µM.

Consider `NC(=O)C1CCN(c2nc(-c3ccc(Cl)cc3)nc3sc4c(c23)CCC4)CC1`, for which the IC90 is 3.79 µM. Moreover, under “FFLUC_HILL_SLOPE 3.15, FFLUC_R_SQUARED 0.774, HEPG2TOX_HILL_SLOPE 6.41, HEPG2TOX_R_SQUARED 0.32, PBLUC_HILL_SLOPE 20.1, PBLUC_R_SQUARED 0.486, read-out: LUCIFERASE INFECTION ASSAY - IC50”, the IC50 was determined as 3.4 µM.

Regarding `CC(C)(C)c1ccc(C2SCC(=O)N2c2ccc(Cl)cc2)cc1` (stereo not drawn), the IC90 came to 6.66 µM. Further, the IC50 (PBLUC_HILL_SLOPE 4.61, PBLUC_R_SQUARED 0.0595, read-out: LUCIFERASE INFECTION ASSAY - IC50) was 4.13 µM.

On to `O=C(Nc1ccc(OC(F)(F)F)cc1)Nc1ccccc1SCC(O)Cn1ccc(C(F)(F)F)n1` (stereo not drawn), for which the IC90 is > 6.34 µM. Further, the IC50 (PBLUC_HILL_SLOPE 15.1, PBLUC_R_SQUARED 0.225, read-out: LUCIFERASE INFECTION ASSAY - IC50) came out at 5.88 µM.

As for `Cn1cc(C(=O)ONC(=N)c2ccc(C(C)(C)C)cc2)c(C(F)(F)F)n1`, the IC90 is > 8.96 µM. For the same molecule, under setting [1], the IC50 is > 8.96 µM.

For `CC(C)CC(N)c1csc(Nc2nncc3ccccc23)n1` (stereo not drawn), the IC90 came to 4.43 µM. The IC50 (HEPG2TOX_HILL_SLOPE 11.3, HEPG2TOX_R_SQUARED 0.262, PBLUC_HILL_SLOPE 9.28, PBLUC_R_SQUARED 0.498, read-out: LUCIFERASE INFECTION ASSAY - IC50) came out at 3.5 µM.

With `Cc1c(C(=O)OCC(=O)/C=C2\N(C)c3ccccc3C2(C)C)sc2nc3n(c(=O)c12)CCC3`, the concentration for an effect of 90% (IC90) is > 10 µM. Besides, under setting [1], the IC50 was > 10 µM.

For `N#CC1C(=N)Oc2c3c(c4ccccc4c2C1c1ccc(F)cc1)C(c1ccc(F)cc1)C(C#N)C(=N)O3` (stereo not drawn), the concentration for an effect of 90% (IC90) was > 6.54 µM. Besides, the IC50 (FFLUC_HILL_SLOPE 11.1, FFLUC_R_SQUARED 0.748, PBLUC_HILL_SLOPE 2.09, PBLUC_R_SQUARED 0.0277, read-out: LUCIFERASE INFECTION ASSAY - IC50) was 4.45 µM.

For the molecule `C=S(=O)(NC(=O)CSc1nc2ccccc2s1)c1ccc(Cl)cc1` (stereo not drawn), the IC90 is > 8.31 µM. Under “FFLUC_HILL_SLOPE 11.2, FFLUC_R_SQUARED 0.126, read-out: LUCIFERASE INFECTION ASSAY - IC50”, the IC50 was > 8.31 µM.

In the case of `O=C(NNC(=O)c1ccc(CSc2ccc(C(F)(F)F)cn2)o1)c1ccc(Cl)cc1`, the IC90 is > 7.24 µM. For the same molecule, the IC50 under setting [1] was > 7.24 µM.

On to `CC(C)c1ccc(Nc2ccn3ncc(-c4cccc(N)c4)c3n2)cc1`, for which the IC90 was > 9.61 µM. In addition, the IC50 (HEPG2TOX_HILL_SLOPE 3.91, HEPG2TOX_R_SQUARED 0.953, PBLUC_HILL_SLOPE 9.39, PBLUC_R_SQUARED 0.444, read-out: LUCIFERASE INFECTION ASSAY - IC50) came to 8 µM.

For `N#Cc1ccc(-c2cnc3cnc(-c4cccc(Cl)c4)cn23)cc1`, the 90% effect concentration (IC90) is > 9.98 µM. The IC50 (PBLUC_HILL_SLOPE 4, PBLUC_R_SQUARED 0.258, read-out: LUCIFERASE INFECTION ASSAY - IC50) came to 8.15 µM.

For `Cc1ccc(Cl)cc1N1C(=O)C=CC1=O`, the IC90 is > 14.9 µM. Further, the IC50 (FFLUC_HILL_SLOPE 1.79, FFLUC_R_SQUARED 0.452, HEPG2TOX_HILL_SLOPE 16.8, HEPG2TOX_R_SQUARED 0.904, PBLUC_HILL_SLOPE 2.51, PBLUC_R_SQUARED 0.543, read-out: LUCIFERASE INFECTION ASSAY - IC50) turned out to be 6.7 µM.

With `COCCNC(=S)Nc1ccccc1CC(c1c[nH]c2ccccc12)c1c[nH]c2ccccc12`, the IC90 was > 10 µM. Besides, the IC50 (PBLUC_HILL_SLOPE 10.3, PBLUC_R_SQUARED 0.121, read-out: LUCIFERASE INFECTION ASSAY - IC50) is 9.41 µM.

As to `CC(=O)c1c(C)cc(C)c(CNc2ccc(NC(=O)C3CC3)cc2C(F)(F)F)c1C`, the IC90 was determined as 4.59 µM. Also, under “HEPG2TOX_HILL_SLOPE 10.3, HEPG2TOX_R_SQUARED 0.233, PBLUC_HILL_SLOPE 1.48, PBLUC_R_SQUARED 0.914, read-out: LUCIFERASE INFECTION ASSAY - IC50”, the IC50 amounted to 1.03 µM.

On to `O=C(Nc1cccc(NC(=O)c2cc(C3CC3)nc3c2nc2n3CCCCC2)c1)c1ccco1`, for which the IC90 was > 10 µM. Also, the IC50 under setting [1] was > 10 µM.

In the case of `Cc1oc2c(c1C(=O)NCC1CCCO1)C(=O)c1ccccc1C2=O` (stereo not drawn), the IC90 is 0.328 µM. Also, where the note is “HEPG2TOX_HILL_SLOPE 84.1, HEPG2TOX_R_SQUARED 0.355, PBLUC_HILL_SLOPE 3.6, PBLUC_R_SQUARED 0.607, read-out: LUCIFERASE INFECTION ASSAY - IC50”, the IC50 came out at 0.178 µM.

`O=C(Nc1ccccc1Cc1ccccc1)c1ccccc1NS(=O)(=O)c1ccc(Cl)s1`: the IC90 was 3.48 µM. Besides, the IC50 (FFLUC_HILL_SLOPE 7.32, FFLUC_R_SQUARED 0.665, HEPG2TOX_HILL_SLOPE 2.07, HEPG2TOX_R_SQUARED 0.984, PBLUC_HILL_SLOPE 54.5, PBLUC_R_SQUARED 0.445, read-out: LUCIFERASE INFECTION ASSAY - IC50) came out at 3.34 µM.

With `N#CC(C(=O)COC(=O)c1cc(Br)ccc1O)=C1Nc2ccccc2N1`, the IC90 was > 10 µM. The IC50 (PBLUC_HILL_SLOPE 2.06, PBLUC_R_SQUARED 0.487, read-out: LUCIFERASE INFECTION ASSAY - IC50) is 6.23 µM.

Turning to `Cn1ccc2cc(-c3cn4c(-c5ccncc5)cnc4cn3)ccc21`, the IC90 was > 10.1 µM. The IC50 under setting [1] was > 10.1 µM.

As for `COc1ccc(-c2nc(NC(=O)c3ccc(-n4cccn4)nc3)sc2C)cc1`, the IC90 is > 10 µM. Moreover, under setting [1], the IC50 was > 10 µM.

As to `Cn1c(=O)/c(=C\c2cn(-c3ccccc3)nc2-c2ccccc2)s/c1=C\C(=O)C(C)(C)C`, the IC90 is > 10 µM. Besides, the IC50 (FFLUC_HILL_SLOPE 11.8, FFLUC_R_SQUARED 0.797, read-out: LUCIFERASE INFECTION ASSAY - IC50) was > 10 µM.
